Measured values from patent US8563729B2, “Thienopyridone derivatives as AMP-activated protein kinase (AMPK) activators” (Merck Patent GmbH, priority 2008, dated 2013).

Experiments:
H-2 Kb cells = assay: Glucose uptake in H-2 Kb cells (in vitro cellular test); assay type: cell-based, mouse; conditions: H-2 Kb cells differentiated in muscle, 4 hours incubation, 2-deoxy-D-[1,2 3H] glucose uptake 10 min
Outline: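 H-2 Kb tsA58 mouse cells were differentiated to muscle at 37° C without interferon-γ for 3 days, then exposed to compound for 4 h in 1 g/l glucose DMEM. Uptake of 3H-2-deoxyglucose over 10 min was measured by scintillation. Activity was taken as the compound concentration matching or exceeding uptake with insulin (170 nM), scored ≦10 or >10 micro Molar.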

[1] = target: T1, AMPK protein (recombinant α1β1γ2) (Homo sapiens, UniProt Q13131+Q9Y478); assay: AMPK enzymatic activity (Delfia, AMARA peptide substrate); assay type: biochemical; conditions: compound 30 μM vs AMP 30 μM; 125 μM ATP; ratio 90% or higher = direct activator
T1 construct: made in house; host or cells: E. coli
Outline: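 Human α1β1γ2 AMPK expressed in E. coli, reactivated in vitro by LKB1, assayed in 50 mM Hepes pH 7.4 with 125 μM ATP and AMARA peptide for 30 min at room temperature; phosphorylation detected by Delfia anti-phosphoserine antibody. Activity = % of basal control at 30 μM compound relative to that of 30 μM AMP.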

T1 sequence (Q13131 whole entry): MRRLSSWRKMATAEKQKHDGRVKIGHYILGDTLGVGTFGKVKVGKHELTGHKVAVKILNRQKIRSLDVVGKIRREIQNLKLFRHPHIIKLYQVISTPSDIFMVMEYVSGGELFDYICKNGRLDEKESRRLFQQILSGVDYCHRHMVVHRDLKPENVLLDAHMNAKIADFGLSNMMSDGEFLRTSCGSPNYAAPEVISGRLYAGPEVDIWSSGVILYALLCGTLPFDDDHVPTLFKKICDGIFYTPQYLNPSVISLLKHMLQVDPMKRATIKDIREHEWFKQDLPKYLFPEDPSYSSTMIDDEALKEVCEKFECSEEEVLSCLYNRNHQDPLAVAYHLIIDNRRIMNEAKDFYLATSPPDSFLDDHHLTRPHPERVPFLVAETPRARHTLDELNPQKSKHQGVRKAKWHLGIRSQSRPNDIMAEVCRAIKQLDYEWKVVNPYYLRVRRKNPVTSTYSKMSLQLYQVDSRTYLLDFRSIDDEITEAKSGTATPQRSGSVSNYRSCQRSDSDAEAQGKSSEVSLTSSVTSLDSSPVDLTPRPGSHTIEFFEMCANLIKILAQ
T1 sequence (Q9Y478 whole entry): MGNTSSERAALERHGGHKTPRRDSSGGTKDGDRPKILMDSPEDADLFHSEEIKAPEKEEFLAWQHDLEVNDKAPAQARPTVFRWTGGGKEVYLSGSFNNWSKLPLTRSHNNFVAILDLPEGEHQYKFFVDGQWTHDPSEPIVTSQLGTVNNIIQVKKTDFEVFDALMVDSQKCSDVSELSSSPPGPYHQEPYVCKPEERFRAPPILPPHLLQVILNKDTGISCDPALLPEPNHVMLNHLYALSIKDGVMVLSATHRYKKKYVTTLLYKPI
T1 sequence (Q9UGJ0 whole entry partner): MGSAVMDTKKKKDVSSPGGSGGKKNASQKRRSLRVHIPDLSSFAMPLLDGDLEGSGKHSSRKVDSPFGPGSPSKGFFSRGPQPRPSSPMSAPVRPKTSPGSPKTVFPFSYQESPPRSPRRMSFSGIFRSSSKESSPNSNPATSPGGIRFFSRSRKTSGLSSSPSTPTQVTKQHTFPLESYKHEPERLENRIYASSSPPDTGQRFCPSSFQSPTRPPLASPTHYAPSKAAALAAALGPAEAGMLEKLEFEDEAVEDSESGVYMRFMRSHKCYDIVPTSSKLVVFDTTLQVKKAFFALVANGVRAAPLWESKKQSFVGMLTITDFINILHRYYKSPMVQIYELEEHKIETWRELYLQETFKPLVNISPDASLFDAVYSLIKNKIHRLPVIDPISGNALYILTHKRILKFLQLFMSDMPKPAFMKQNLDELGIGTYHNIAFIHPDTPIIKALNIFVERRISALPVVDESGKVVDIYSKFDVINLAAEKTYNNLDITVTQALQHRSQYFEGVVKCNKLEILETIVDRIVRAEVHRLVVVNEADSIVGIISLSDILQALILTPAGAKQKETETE

| SMILES | Activity (table III): Concentration of compound (I) for a glucose uptake equal or higher to glucose uptake induced by insulin (170 nM) (H-2 Kb cells) | activity: Ratio between the % of control (basal activity) of compound of formula (I) at 30 μM and the % of control (basal activity) of AMP at 30 μM [1] |
| --- | --- | --- |
| COc1cc(F)ccc1-c1c(Cl)sc2[nH]c(=O)c(-c3ccccc3)c(O)c12 [Compound 187] | + (^+ or *concentration of compound (I) >10 micro Molar) | 124% |
| Cc1ccc(-c2c(O)c3c(-c4ccc(F)cc4O)csc3[nH]c2=O)cc1 [Compound 188] | + (^+ or *concentration of compound (I) >10 micro Molar) | 183% |
| COc1ccc(F)cc1-c1c(Cl)sc2[nH]c(=O)c(-c3ccccc3)c(O)c12 [Compound 189] | + (^+ or *concentration of compound (I) >10 micro Molar) | 175% |
| COc1ccc(-c2c(Cl)sc3[nH]c(=O)c(-c4ccccc4)c(O)c23)cc1OC [Compound 190] | + (^+ or *concentration of compound (I) >10 micro Molar) | 256% |
| COc1ccc(-c2c(O)c3c(-c4ccc(F)cc4O)csc3[nH]c2=O)cc1 [Compound 191] | + (^+ or *concentration of compound (I) >10 micro Molar) | 187% |
| Cc1ccc(-c2c(Cl)sc3[nH]c(=O)c(-c4cccc(C(=O)O)c4)c(O)c23)c(O)c1 [Compound 192] | ++ (^++ or **concentration of compound (I) ≦10 micro Molar) | 193% |
| O=c1[nH]c2sc(Cl)c(-c3cc(F)c(F)cc3O)c2c(O)c1-c1ccccc1 [Compound 193] | + (^+ or *concentration of compound (I) >10 micro Molar) | 139% |
| Cc1ccc(-c2c(O)c3c(-c4ccc(C)cc4O)c(Cl)sc3[nH]c2=O)cc1 [Compound 194] | ++ (^++ or **concentration of compound (I) ≦10 micro Molar) | 183% |
| Cc1ccc(-c2c(Cl)sc3[nH]c(=O)c(-c4cccnc4)c(O)c23)c(O)c1 [Compound 195] | + (^+ or *concentration of compound (I) >10 micro Molar) | 156% |
| Cc1ccc(-c2c(Cl)sc3[nH]c(=O)c(-c4ccccc4)c(O)c23)cc1C [Compound 196] | ++ (^++ or **concentration of compound (I) ≦10 micro Molar) | 165% |
| Cc1ccc(-c2csc3[nH]c(=O)c(-c4ccccc4)c(O)c23)c(O)c1F [Compound 198] | + (^+ or *concentration of compound (I) >10 micro Molar) | 363% |
| COc1c(-c2c(Cl)sc3[nH]c(=O)c(-c4ccccc4)c(O)c23)ccc(C)c1C [Compound 201] | + (^+ or *concentration of compound (I) >10 micro Molar) | 122% |
| Cc1ccc(-c2c(Cl)sc3[nH]c(=O)c(-c4ccccc4)c(O)c23)c(O)c1C [Compound 202] | ++ (^++ or **concentration of compound (I) ≦10 micro Molar) | 305% |
